Values quoted from earlier work in US20110038852A1, “ANTIVIRALS THAT TARGET TRANSPORTERS, CARRIERS, AND ION CHANNELS” (3-V BIOSCIENCES, INC., priority 2009, published 2011).

Experiments:
[1] = tested on: rhinoviral infections; details: volunteers, clinical trials
[2] = tested on: rhinovirus infections

Molecule | mucus secretions and illness-associated symptoms [1] | side effects ([2]; human, in vivo) | effect against rhinovirus infections ([2]; used intranasally)
Cc1cc(CCCOc2c(C)cc(-c3noc(C(F)(F)F)n3)cc2C)on1 [Pleconaril] | significant decrease |  | 
Interferon-alpha |  | nasal bleeding | effective
